Data from patent US20180318300A1, “TREATMENT OF AUTOIMMUNE DISEASE” (MingSight Pharmaceuticals, Inc., priority 2015, published 2018).
Marks after values point to notes of the source that are not given here.

Key:
[1] = system: experimental autoimmune encephalitis (EAE) model; assay: Experimental autoimmune encephalitis (EAE) model in Lewis rats; type: in vivo; settings: for EAE incidence (%): from Day 8
Procedure: Compound A was tested in the experimental autoimmune encephalitis (EAE) model in Lewis rats. EAE was induced by MBP69-88/CFA immunization and pertussis toxin injection in Lewis rats (Hashim, et al., 1986, J Neurosci Res.; 16(3):467-78). Compound A was prepared as an oral suspension and dosed orally, twice per day (BID) at three doses, 7.5 and 15 and 30 mg/kg for total daily doses of 15, 30 and 60 mg/kg. The efficacy was compared to animals that received the positive control FTY720 (also known as fingolimod; a compound approved for use in humans) dosed once per day at a dose of 0.5 mg/kg.

[2] = target: Human PKC delta (Homo sapiens, UniProt Q05655); assay: In vitro PKC inhibition assay, PKC delta; type: biochemical
Text: (§1) The methods for these determinations have been described (Grant, et al. 2010, Eur J Pharmacol. 627:16-25).

[3] = target: PKCβ (Homo sapiens, UniProt P05771); assay: pSHP2 (PKCβ cell assay); type: cell-based
[4] = system: MRL/lpr mouse model of lupus; assay: MRL/lpr mouse model of lupus; type: in vivo, Female MRL/MpJ-Tnfrsf6lpr/J mice
Procedure: Compound A was tested for efficacy in the MRL/lpr mouse model of lupus (Shlomchik M J, et al, 1994, J Exp Med 180:1295-1306; Cohen P L and Eisenberg R. A. 1991, Annu Rev Immunol, 9:243-69; Honigberg, L. A., et al., 2010, Proc Natl Acad Sci USA. 107:13075-80). Female MRL/MpJ-Tnfrsf6lpr/J mice of 8-9 weeks of age were used in the study. When the mice reached 12 weeks of age, they were randomized by animal body weight into one of the treatment groups or an untreated control group. Treatments was initiated after randomization and continued for 12 weeks. Starting on study week 1, and then every week thereafter, urine from each animal was tested for proteinuria using the Clinitech Multistick test strip (Bayer). The animals were observed daily for significant clinical signs, moribundity and mortality. Scoring of lymphadenopathy (cervical, brachial, and inguinal) for all animals was recorded every week once lesions become apparent in 50% of the animals in vehicle-treated group.
Compound A was prepared as an oral suspension. Initial dosing was completed at two dose levels, 60 and 90 mg/kg, BID for a total dose of 120 and 180 mg/kg/day. […] Dosing for the final 8 weeks was at 180 and 240 mg/kg/day.

[5] = Separate pharmacokinetics experiments in mice; type: in vivo; settings: 60 mg/kg dose, oral suspension
[6] = system: experimental autoimmune uveitis; assay: Lewis rat model of experimental autoimmune uveitis; type: in vivo; settings: oral, once per day, 10 and 20 mg/kg
Procedure: The efficacy was compared to animals that received the positive control cyclosporine dosed at 25 mg/kg. […] Efficacy in the model was assessed by clinical grading and by assessment of the sections of the eyes prepared for histology at the completion of the experiment.

[7] = treatment of increased spleen weight; type: in vivo; settings: FIG. 10
[8] = system: Interleukin-8 release; assay: Interleukin-8 release; type: cell-based
Text: as §1

[9] = system: MRL/lpr lupus model; assay: MRL/lpr lupus model; type: in vivo
[10] = system: rat model of encephalitis; assay: rat model of encephalitis; type: in vivo; settings: FIG. 11
[11] = 120 mg/kg p.o. BID (60 mg/kg BID for the initial 4 weeks)
[12] = both doses (180 and 240 mg/kg/day for the final 8 weeks)

PKCβ, sequence (P05771 whole entry, species assumed): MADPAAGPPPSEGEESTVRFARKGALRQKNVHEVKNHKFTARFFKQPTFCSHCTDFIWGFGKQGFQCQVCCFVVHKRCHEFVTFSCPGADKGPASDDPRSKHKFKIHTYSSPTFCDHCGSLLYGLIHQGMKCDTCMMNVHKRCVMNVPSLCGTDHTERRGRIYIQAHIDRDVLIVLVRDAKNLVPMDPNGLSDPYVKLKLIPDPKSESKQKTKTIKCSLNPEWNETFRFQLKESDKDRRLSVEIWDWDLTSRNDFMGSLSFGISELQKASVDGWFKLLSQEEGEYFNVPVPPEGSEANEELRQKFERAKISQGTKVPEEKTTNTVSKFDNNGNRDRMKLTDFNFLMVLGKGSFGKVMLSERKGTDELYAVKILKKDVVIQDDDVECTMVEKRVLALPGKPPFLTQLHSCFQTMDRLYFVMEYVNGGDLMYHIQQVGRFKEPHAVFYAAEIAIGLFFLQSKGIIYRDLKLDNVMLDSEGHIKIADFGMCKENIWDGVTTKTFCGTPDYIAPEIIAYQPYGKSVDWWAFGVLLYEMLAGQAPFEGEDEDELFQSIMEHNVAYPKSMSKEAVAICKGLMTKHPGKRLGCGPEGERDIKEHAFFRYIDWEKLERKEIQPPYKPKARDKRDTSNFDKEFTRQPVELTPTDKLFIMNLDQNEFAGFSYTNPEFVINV
Human PKC delta, sequence (Q05655 whole entry): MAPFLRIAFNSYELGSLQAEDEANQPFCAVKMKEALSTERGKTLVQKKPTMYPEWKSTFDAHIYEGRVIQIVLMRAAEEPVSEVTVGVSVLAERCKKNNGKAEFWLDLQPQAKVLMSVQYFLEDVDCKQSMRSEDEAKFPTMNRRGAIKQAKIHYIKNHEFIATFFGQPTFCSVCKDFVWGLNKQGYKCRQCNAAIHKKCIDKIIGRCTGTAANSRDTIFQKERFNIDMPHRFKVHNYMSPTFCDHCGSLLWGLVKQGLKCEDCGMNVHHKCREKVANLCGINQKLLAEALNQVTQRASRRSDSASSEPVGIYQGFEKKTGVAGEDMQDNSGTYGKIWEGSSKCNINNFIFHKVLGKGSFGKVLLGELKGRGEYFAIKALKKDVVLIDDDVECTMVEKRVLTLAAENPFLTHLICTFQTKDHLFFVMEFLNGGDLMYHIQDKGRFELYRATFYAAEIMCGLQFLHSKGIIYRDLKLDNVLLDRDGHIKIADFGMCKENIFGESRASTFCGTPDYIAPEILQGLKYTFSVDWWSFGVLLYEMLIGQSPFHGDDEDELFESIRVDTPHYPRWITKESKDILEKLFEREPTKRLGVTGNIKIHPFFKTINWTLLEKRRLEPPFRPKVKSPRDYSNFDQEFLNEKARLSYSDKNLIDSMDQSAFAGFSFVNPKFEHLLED

For `CCCCCCCCc1ccc(CCC(N)(CO)CO)cc1` [FTY720, fingolimod, reference compound], the “Mean day of onset +/− SEM (sick rats)” value ([1]; 0.5 mg/kg p.o. QD) was 8.0 +/− 0.3, the “Median day of onset (all rats)” value ([1]; 0.5 mg/kg p.o. QD) was 8.0 and the “EAE incidence (%)” value ([1]; 0.5 mg/kg p.o. QD) was 87.5%.

In the case of `Cc1ncc(F)c(Nc2n[nH]c3c2CN(C(=O)N2C[C@@H](C)N(CC4CCOCC4)C[C@@H]2C)C3(C)C)n1` [compound A, 5-{[(2S,5R)-2,5-dimethyl-4-(tetrahydro-2H-pyran-4-ylmethyl)piperazin-1-yl]carbonyl}-N-(5-fluoro-2-methylpyrimidin-4-yl)-6,6-dimethyl-1,4,5,6-tetrahydropyrrolo[3,4-c]pyrazol-3-amine], the “Inhibition of PKC delta (in words)” value [2] is reported as “does not significantly inhibit”, the IC50 [3] is reported as 9.8 nM and the BUN/Creatinine ([4]; 90 mg/kg p.o. BID) is reported as 163.9. The Creatinine ([4]; 90 mg/kg p.o. BID) was 0.26, the “BUN” value ([4]; 90 mg/kg p.o. BID, 12 weeks of treatment) was 52.4 mg/dL and the “BUN” value [4, 11] was 29.5 mg/dL. The BUN/Creatinine [4, 11] was 147.7, the Creatinine [4, 11] was 0.20 and the “Lymphadenopathy score (FIG. 8)” value [4, 12] was “reduction”. The “Mean absolute spleen weight (FIG. 9)” value [4, 12] was “reduction”, the “Mean lymph node weight (FIG. 10)” value [4, 12] was “reduction” and the “Protein in the urine (FIG. 7)” value [4, 12] was “significant reduction”. For the same molecule, the “Exposure of compound A in mice” value [5] was “unexpectedly low and insufficient exposure”, the “Reduction in clinical scores (FIG. 12)” value [6] was “greater than 50%” and the “Reduction in histopathological scores (FIG. 13)” value [6] was “greater than 75%”. The increased spleen weight [7] was “efficacy”, the “Mean day of onset +/− SEM (sick rats)” value ([1]; 7.5 mg/kg p.o. BID) was 9.0 +/− 0.5 and the “Median day of onset (all rats)” value ([1]; 7.5 mg/kg p.o. BID) was 9.0. The “EAE incidence (%)” value ([1]; 7.5 mg/kg p.o. BID) was 100.0%, the “Mean day of onset +/− SEM (sick rats)” value ([1]; 15 mg/kg p.o. BID) was 8.5 +/− 0.4 and the “Median day of onset (all rats)” value ([1]; 15 mg/kg p.o. BID) was 8.0. For the same molecule, the “EAE incidence (%)” value ([1]; 15 mg/kg p.o. BID) was 100.0%, the “Mean day of onset +/− SEM (sick rats)” value ([1]; 30 mg/kg p.o. BID) was 9.0 +/− 0.9 and the “Median day of onset (all rats)” value ([1]; 30 mg/kg p.o. BID) was 13.5. For the same molecule, the “EAE incidence (%)” value ([1]; 30 mg/kg p.o. BID, p<0.05 vs. vehicle) was 50.0%*, the “Clinical score in the EAE model” value ([1]; 7.5, 15 and 30 mg/kg BID) was “dose-dependent decrease” and the “End EAE severity compared to the vehicle control group (FIG. 11)” value ([1]; 15 and 30 mg/kg BID) was “significantly reduced”. The “Maximum EAE severity compared to the vehicle control group (FIG. 11)” value ([1]; 15 and 30 mg/kg BID) was “significantly reduced”, the “Clinical score compared with fingolimod” value ([1]; highest dose employed (30 mg/kg BID) vs fingolimod 0.5 mg/kg QD) was “appeared superior to fingolimod” and the IC50 [8] was 39 nM. The urine score ([9]; FIG. 7) was “reducing urine score”, the lymphadenopathy ([9]; FIG. 8) was “reducing lymphadenopathy” and the splenomegaly ([9]; FIG. 9) was “reducing splenomegaly”. The “efficacy in a rat model of encephalitis” value [10] was “efficacy”.
